How the values were obtained:
Epac = target: T1, Epac (Homo sapiens, UniProt O95398); assay: Relative affinity for Epac (cAMP = 1), in vitro; assay type: binding; conditions: relative to cAMP = 1
T1 sequence (O95398 1-923): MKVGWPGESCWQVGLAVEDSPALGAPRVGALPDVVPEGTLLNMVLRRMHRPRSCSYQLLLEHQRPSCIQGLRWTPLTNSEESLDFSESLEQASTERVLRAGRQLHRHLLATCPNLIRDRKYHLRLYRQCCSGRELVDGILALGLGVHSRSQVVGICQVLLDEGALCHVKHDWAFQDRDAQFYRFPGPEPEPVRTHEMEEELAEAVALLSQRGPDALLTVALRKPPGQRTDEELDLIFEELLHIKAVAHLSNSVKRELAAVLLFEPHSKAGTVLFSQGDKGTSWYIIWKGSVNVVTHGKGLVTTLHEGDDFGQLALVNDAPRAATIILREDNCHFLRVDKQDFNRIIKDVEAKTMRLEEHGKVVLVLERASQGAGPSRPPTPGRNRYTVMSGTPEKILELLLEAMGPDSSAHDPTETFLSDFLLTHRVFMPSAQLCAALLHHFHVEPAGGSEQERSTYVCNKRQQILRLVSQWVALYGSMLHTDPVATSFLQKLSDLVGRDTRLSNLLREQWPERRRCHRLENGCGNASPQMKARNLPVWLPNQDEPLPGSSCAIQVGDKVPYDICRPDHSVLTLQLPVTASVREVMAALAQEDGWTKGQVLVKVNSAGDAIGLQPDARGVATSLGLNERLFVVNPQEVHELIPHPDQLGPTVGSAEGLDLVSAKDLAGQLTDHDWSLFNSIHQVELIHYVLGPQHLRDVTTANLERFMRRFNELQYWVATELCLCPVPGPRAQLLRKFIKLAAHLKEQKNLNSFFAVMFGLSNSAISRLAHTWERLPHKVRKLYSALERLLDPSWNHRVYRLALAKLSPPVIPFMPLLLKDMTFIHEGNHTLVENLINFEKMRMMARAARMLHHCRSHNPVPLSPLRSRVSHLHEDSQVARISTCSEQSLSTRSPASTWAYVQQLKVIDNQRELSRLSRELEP

Epac1-ΔDEP1 = target: T2, Epac1-ΔDEP1 (Homo sapiens, UniProt O95398); assay: In vitro GEF assay: Epac activity in the exchange reaction towards Rap (mantGDP-loaded Rap1b); assay type: biochemical; conditions: in vitro in the exchange reaction towards Rap; further: key: +++: activity comparible to I-007; ++: activity between I-007 and cAMP; +: activity comparible to cAMP; ±: activity less than cAMP
T2 sequence (O95398 191-923 limits assumed): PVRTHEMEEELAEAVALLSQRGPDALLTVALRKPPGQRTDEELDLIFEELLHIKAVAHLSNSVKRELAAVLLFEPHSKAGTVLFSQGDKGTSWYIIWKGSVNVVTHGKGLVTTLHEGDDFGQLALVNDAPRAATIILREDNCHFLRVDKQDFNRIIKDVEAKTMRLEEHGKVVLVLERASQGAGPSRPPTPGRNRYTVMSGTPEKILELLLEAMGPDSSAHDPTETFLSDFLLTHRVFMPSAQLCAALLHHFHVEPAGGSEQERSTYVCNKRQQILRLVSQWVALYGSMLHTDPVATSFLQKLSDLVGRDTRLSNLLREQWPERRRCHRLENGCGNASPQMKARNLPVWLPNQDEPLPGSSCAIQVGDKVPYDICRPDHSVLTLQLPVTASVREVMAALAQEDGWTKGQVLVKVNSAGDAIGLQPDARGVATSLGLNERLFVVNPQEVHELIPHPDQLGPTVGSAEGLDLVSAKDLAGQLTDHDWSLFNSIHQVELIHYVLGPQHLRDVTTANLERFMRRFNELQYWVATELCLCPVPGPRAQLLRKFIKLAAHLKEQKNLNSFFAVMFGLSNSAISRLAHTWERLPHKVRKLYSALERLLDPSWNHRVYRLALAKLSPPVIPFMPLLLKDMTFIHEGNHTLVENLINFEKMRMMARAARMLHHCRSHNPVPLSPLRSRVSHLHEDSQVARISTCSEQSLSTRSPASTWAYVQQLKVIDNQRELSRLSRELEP
Experimental: In vitro GEF assays were performed as described (3,16). […] Buffer conditions were 50 mM Tris pH7.4, 150 mM NaCl, 5% glycerol, 5 mM DTE, 60 μM GTP. Reactions were carried out in 96-well plates and measured in a Cary Eclipse from Varian Inc., using the manufacturers software.

| Compound | Relative affinity CAMP = 1 Epac (Epac) | Relative activity of Epac* (Epac1-ΔDEP1) |
| --- | --- | --- |
| 8-(2,3,5,6-tetrafluoro-phenylthio)-2′-O-methyladenosine-3′,5′-cyclic monophosphate [Compound I-124] | 4.7 | ++ |
| 8-(2,4-dichloro-phenylthio)-2′-O-methyladenosine-3′,5′-cyclic monophosphate [Compound I-126] | 3.1 | ++ |
| 8-(2-amino-ethylthio)-2′-O-methyladenosine-3′,5′-cyclic monophosphate [Compound I-118] | 0.34 | ± |
| 8-(2-hydroxy-ethylthio)-2′-O-methyladenosine-3′,5′-cyclic monophosphate [Compound I-116] | 1.2 | + |
| 8-(3-methoxy-phenylthio)-2′-O-methyladenosine-3′,5′-cyclic monophosphate [Compound I-122] | 2 | + |
| 8-(4-Chloro-phenylthio)-inosine-3′,5′-cyclic monophosphate [Compound I-139] | – | + |
| 8-(4-chloro-phenylthio)-2′-(N,N-dimethyl)-carbamoyl-adenosine-3′,5′-cyclic monophosphate [Compound I-127] | <0.002 | – |
| 8-(4-chloro-phenylthio)-2′-O-methyladenosine-3′,5′-cyclic monophosphorothioate, Rp-isomer [Compound I-130] | 0.06 | ± |
| 8-(4-chloro-phenylthio)-2′-O-methyladenosine-3′,5′-cyclic monophosphorothioate, Sp-isomer [Compound I-134] | – | + |
| 8-(4-chloro-phenylthio)-2′-deoxyadenosine-3′,5′-cyclic monophosphorothioate, Rp-isomer [Compound I-137] | – | + |
| 8-(4-chloro-phenylthio)-2′-deoxyadenosine-3′,5′-cyclic monophosphorothioate, Sp-isomer [Compound I-138] | – | + |
| 8-(4-hydroxy-phenylthio)-2′-O-methyladenosine-3′,5′-cyclic monophosphate [Compound I-125] | 6.4 | +++ |
| 8-(4-isopropyl-phenylthio)-2′-O-methyladenosine-3′,5′-cyclic monophosphate [Compound I-123] | 4.8 | ++ |
| 8-(4-methyl-phenylthio)-2′-O-methyladenosine-3′,5′-cyclic monophosphate [Compound I-121] | 5.1 | +++ |
| 8-bromo-2′-O-methyladenosine-3′,5′-cyclic monophosphorothioate, Sp-isomer [Compound I-133] | – | + |
| 8-bromo-2′-deoxyadenosine-3′,5′-cyclic monophosphorothioate, Rp-isomer [Compound I-135] | – | + |
| 8-cyclohexylamino-2′-deoxyadenosine-3′,5′-cyclic monophosphate [Compound I-140] | – | + |
| Nc1ncnc2c1nc(Br)n2[C@H]1C[C@@H]2O[P@@](=O)(S)OC[C@H]2O1 [Compound I-136, 8-bromo-2′-deoxyadenosine-3′,5′-cyclic monophosphorothioate, Sp-isomer] | – | + |
